Data from ChEMBL document CHEMBL4804286, “3-amino-4-(4-(4 (dimethylcarbamoyl) phenyl)-1,4-diazepan-1-yl) thieno [2,3-b] pyridine-2-carboxamide for use in cancer therapy and formulations comprising the same” (2020).
Where “and” joins values, the source holds several entries; their conditions need not be identical. Equal entries are not always repeated. Calls of active or inactive are those of the source. The calls are words filed in the database; no cut-off is given here.

Legend:
[1] = biological target: Serine/threonine-protein kinase PAK 6 (Homo sapiens) (UniProt Q9NQU5); assay: Inhibition of human PAK6 assessed as percent of control at 2000 nM by KINOMEscan assay relative to control; set-up: scale not given: the % may be the effect or the level left
[2] = biological target: Mitogen-activated protein kinase kinase kinase kinase 3 (Homo sapiens) (UniProt Q8IVH8); assay: Inhibition of human MAP4K3 assessed as percent of control at 2000 nM by KINOMEscan assay relative to control; set-up: scale not given: the % may be the effect or the level left
[3] = tested on: Mast/stem cell growth factor receptor Kit (Homo sapiens), P10721 [V559D]; assay: Inhibition of human KIT V559D mutant assessed as percent of control at 2000 nM by KINOMEscan assay relative to control; set-up: scale not given: the % may be the effect or the level left
[4] = tested on: Epidermal growth factor receptor (Homo sapiens), P00533 [UNDEFINED MUTATION]; assay: Inhibition of human EGFR L747-T751del/Sins double mutant assessed as percent of control at 2000 nM by KINOMEscan assay relative to control; set-up: scale not given: the % may be the effect or the level left
[5] = biological target: SRSF protein kinase 1 (Homo sapiens) (UniProt Q96SB4); assay: Inhibition of human SRPK1 assessed as percent of control at 2000 nM by KINOMEscan assay relative to control; set-up: scale not given: the % may be the effect or the level left
[6] = biological target: Macrophage-stimulating protein receptor (Homo sapiens) (UniProt Q04912); assay: Inhibition of human MST1R assessed as percent of control at 2000 nM by KINOMEscan assay relative to control; set-up: scale not given: the % may be the effect or the level left
Myc-CaP [7] = assay: Antiproliferative activity against murine castration-resistant Myc-CaP cells at 1 uM assessed as growth inhibition in presence of 5 uM enzalutamide relative to control; assay type: functional; conditions: Mus musculus
Myc-CaP [8] = assay: Antitumor activity against murine castration-resistant Myc-CaP cells xenografted in male FVB mouse assessed as suppression of tumor volume; assay type: functional
[9] = biological target: Cyclin-dependent kinase 18 (Homo sapiens) (UniProt Q07002); assay: Inhibition of human PCTK3 assessed as percent of control at 2000 nM by KINOMEscan assay relative to control; set-up: scale not given: the % may be the effect or the level left
Cyclin-dependent kinase 18 (Homo sapiens), sequence (Q07002 whole entry): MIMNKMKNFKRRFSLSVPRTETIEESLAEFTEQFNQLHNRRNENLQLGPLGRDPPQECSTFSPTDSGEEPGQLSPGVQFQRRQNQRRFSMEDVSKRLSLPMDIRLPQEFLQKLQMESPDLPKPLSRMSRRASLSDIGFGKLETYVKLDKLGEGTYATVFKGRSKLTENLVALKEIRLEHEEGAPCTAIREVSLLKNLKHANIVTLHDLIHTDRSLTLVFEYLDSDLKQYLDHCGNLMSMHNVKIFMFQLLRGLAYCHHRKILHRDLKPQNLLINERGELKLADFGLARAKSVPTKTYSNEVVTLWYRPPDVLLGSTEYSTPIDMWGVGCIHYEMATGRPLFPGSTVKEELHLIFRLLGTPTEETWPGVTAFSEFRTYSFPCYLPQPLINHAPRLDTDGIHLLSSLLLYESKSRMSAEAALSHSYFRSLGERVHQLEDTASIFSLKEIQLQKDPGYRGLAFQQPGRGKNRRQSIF

Myc-CaP [10] = assay: Antitumor activity against murine castration-resistant Myc-CaP cells xenografted in male FVB mouse assessed as suppression of tumor volume in presence of enzalutamide; assay type: functional
[11] = biological target: Homeodomain-interacting protein kinase 1 (Homo sapiens) (UniProt Q86Z02); assay: Inhibition of human HIPK1 assessed as percent of control at 2000 nM by KINOMEscan assay relative to control; set-up: scale not given: the % may be the effect or the level left
[12] = biological target: Megakaryocyte-associated tyrosine-protein kinase (Homo sapiens) (UniProt P42679); assay: Inhibition of human CTK assessed as percent of control at 2000 nM by KINOMEscan assay relative to control; set-up: scale not given: the % may be the effect or the level left
[13] = biological target: Tyrosine-protein kinase ZAP-70 (Homo sapiens) (UniProt P43403); assay: Inhibition of human ZAP70 assessed as percent of control at 2000 nM by KINOMEscan assay relative to control; set-up: scale not given: the % may be the effect or the level left
[14] = biological target: Mitogen-activated protein kinase kinase kinase 1 (Homo sapiens) (UniProt Q13233); assay: Inhibition of human MAP3K1 assessed as percent of control at 2000 nM by KINOMEscan assay relative to control; set-up: scale not given: the % may be the effect or the level left
[15] = biological target: Serine/threonine-protein kinase PLK4 (Homo sapiens) (UniProt O00444); assay: Inhibition of human PLK4 assessed as percent of control at 2000 nM by KINOMEscan assay relative to control; set-up: scale not given: the % may be the effect or the level left
[16] = tested on: Fibroblast growth factor receptor 3 (Homo sapiens), P22607 [G697C]; assay: Inhibition of human FGFR3 G697C mutant assessed as percent of control at 2000 nM by KINOMEscan assay relative to control; set-up: scale not given: the % may be the effect or the level left
[17] = biological target: Serine/threonine-protein kinase Sgk2 (Homo sapiens) (UniProt Q9HBY8); assay: Inhibition of human SGK2 assessed as percent of control at 2000 nM by KINOMEscan assay relative to control; set-up: scale not given: the % may be the effect or the level left
Serine/threonine-protein kinase Sgk2 (Homo sapiens), sequence (Q9HBY8 whole entry): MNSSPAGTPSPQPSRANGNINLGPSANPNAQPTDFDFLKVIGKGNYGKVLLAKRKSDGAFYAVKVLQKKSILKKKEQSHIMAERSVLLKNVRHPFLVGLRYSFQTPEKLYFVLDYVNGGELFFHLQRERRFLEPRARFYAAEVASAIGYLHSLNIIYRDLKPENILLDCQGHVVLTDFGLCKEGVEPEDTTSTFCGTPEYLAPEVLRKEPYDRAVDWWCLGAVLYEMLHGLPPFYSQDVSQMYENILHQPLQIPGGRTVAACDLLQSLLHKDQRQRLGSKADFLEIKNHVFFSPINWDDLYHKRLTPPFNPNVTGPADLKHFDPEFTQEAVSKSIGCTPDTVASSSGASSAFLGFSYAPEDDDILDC

[18] = biological target: NUAK family SNF1-like kinase 1 (Homo sapiens) (UniProt O60285); assay: Inhibition of human ARK5 assessed as percent of control at 2000 nM by KINOMEscan assay relative to control; set-up: scale not given: the % may be the effect or the level left
NUAK family SNF1-like kinase 1 (Homo sapiens), sequence (O60285 whole entry): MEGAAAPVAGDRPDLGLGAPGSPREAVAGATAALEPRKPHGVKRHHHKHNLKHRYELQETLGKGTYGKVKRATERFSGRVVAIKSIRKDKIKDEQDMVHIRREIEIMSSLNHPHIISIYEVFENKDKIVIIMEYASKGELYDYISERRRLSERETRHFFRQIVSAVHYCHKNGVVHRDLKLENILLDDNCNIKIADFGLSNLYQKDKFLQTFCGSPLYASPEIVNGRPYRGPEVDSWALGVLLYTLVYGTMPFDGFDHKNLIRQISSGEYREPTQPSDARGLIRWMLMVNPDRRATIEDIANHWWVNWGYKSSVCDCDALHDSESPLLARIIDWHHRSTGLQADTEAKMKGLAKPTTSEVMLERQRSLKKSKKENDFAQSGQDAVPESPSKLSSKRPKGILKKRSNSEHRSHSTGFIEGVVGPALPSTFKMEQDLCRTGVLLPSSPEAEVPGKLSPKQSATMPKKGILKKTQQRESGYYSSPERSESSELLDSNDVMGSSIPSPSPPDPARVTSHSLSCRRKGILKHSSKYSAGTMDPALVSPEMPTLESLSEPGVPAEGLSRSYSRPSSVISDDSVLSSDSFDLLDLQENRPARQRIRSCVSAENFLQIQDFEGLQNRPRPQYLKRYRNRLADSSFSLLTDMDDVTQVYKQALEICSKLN

[19] = biological target: Dual specificity mitogen-activated protein kinase kinase 7 (Homo sapiens) (UniProt O14733); assay: Inhibition of human MKK7 assessed as percent of control at 2000 nM by KINOMEscan assay relative to control; set-up: scale not given: the % may be the effect or the level left
Dual specificity mitogen-activated protein kinase kinase 7 (Homo sapiens), sequence (O14733 whole entry): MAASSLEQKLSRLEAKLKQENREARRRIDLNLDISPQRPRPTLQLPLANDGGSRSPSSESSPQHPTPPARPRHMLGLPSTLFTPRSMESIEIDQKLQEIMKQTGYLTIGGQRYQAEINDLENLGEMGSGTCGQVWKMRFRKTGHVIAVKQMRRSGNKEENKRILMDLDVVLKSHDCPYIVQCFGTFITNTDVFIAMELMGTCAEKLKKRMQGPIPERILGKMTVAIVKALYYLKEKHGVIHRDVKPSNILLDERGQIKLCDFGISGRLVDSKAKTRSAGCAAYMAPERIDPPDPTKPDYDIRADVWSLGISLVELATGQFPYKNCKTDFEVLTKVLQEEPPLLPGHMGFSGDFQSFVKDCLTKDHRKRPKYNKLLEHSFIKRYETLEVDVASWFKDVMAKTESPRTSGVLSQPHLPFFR

[20] = biological target: Platelet-derived growth factor receptor alpha (Homo sapiens) (UniProt P16234); assay: Inhibition of human PDGFRA assessed as percent of control at 2000 nM by KINOMEscan assay relative to control; set-up: scale not given: the % may be the effect or the level left
[21] = biological target: Serine/threonine-protein kinase MRCK alpha (Homo sapiens) (UniProt Q5VT25); assay: Inhibition of human MRCKA assessed as percent of control at 2000 nM by KINOMEscan assay relative to control; set-up: scale not given: the % may be the effect or the level left
[22] = biological target: Serine/threonine-protein kinase Nek2 (Homo sapiens) (UniProt P51955); assay: Inhibition of human NEK2 assessed as percent of control at 2000 nM by KINOMEscan assay relative to control; set-up: scale not given: the % may be the effect or the level left
[23] = biological target: Myosin light chain kinase, smooth muscle (Homo sapiens) (UniProt Q15746); assay: Inhibition of human MYLK assessed as percent of control at 2000 nM by KINOMEscan assay relative to control; set-up: scale not given: the % may be the effect or the level left
Myosin light chain kinase, smooth muscle (Homo sapiens), sequence (Q15746 whole entry): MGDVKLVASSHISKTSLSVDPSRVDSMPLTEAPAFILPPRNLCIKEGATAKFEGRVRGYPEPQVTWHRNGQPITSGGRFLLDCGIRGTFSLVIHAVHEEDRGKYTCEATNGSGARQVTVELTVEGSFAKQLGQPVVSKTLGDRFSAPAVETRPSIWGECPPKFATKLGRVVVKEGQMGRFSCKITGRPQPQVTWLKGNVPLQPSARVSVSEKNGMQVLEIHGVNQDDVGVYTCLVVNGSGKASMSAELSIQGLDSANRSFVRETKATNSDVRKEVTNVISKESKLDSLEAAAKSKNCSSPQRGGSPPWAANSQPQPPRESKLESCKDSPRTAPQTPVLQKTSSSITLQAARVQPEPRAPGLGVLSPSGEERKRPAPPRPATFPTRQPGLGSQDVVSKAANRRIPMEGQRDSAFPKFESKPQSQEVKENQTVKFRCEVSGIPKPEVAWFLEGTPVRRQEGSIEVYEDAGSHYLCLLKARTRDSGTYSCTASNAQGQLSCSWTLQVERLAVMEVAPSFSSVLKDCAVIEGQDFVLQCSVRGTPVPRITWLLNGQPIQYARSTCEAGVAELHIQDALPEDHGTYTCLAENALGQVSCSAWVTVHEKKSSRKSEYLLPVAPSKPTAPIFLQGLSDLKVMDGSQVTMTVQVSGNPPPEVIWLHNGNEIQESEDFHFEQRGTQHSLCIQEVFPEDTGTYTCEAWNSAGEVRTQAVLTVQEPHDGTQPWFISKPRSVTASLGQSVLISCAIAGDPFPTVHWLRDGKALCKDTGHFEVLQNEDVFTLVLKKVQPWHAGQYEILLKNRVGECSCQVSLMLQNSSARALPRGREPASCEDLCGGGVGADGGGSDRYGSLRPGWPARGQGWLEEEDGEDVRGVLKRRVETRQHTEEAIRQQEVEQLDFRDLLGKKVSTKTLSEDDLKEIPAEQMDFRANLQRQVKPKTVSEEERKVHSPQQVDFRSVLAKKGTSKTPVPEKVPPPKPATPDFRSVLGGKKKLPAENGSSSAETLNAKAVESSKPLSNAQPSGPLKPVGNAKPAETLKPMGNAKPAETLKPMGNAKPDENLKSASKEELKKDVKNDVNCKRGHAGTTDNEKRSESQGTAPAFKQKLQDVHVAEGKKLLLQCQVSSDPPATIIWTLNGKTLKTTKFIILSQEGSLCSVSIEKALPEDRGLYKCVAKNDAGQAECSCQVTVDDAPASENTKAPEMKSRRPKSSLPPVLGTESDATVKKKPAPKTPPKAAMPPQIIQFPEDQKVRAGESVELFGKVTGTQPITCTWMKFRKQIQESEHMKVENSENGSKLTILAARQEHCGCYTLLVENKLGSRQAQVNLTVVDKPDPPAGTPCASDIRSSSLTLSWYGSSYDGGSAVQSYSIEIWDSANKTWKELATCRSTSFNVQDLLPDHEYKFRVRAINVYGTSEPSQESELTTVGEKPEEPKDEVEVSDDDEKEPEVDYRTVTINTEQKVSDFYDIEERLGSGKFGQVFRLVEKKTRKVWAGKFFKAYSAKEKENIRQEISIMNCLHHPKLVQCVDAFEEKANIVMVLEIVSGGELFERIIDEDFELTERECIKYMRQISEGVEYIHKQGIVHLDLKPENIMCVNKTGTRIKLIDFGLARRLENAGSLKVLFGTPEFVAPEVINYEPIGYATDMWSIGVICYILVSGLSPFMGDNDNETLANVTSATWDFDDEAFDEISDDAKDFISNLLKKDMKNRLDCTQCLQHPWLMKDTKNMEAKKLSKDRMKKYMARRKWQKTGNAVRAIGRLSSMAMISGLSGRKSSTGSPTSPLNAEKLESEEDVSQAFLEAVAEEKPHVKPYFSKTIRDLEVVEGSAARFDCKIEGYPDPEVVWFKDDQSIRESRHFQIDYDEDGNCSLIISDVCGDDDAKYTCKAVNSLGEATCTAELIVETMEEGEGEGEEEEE

[24] = tested on: Epidermal growth factor receptor (Homo sapiens), P00533 [T790M]; assay: Inhibition of human EGFR T790M mutant assessed as percent of control at 2000 nM by KINOMEscan assay relative to control; set-up: scale not given: the % may be the effect or the level left
[25] = biological target: Receptor tyrosine-protein kinase erbB-4 (Homo sapiens) (UniProt Q15303); assay: Inhibition of human ERBB4 assessed as percent of control at 2000 nM by KINOMEscan assay relative to control; set-up: scale not given: the % may be the effect or the level left
[26] = biological target: Mitogen-activated protein kinase kinase kinase kinase 5 (Homo sapiens) (UniProt Q9Y4K4); assay: Inhibition of human MAP4K5 assessed as percent of control at 2000 nM by KINOMEscan assay relative to control; set-up: scale not given: the % may be the effect or the level left
[27] = biological target: Serine/threonine-protein kinase PknB (Mycobacterium tuberculosis) (UniProt P9WI81); assay: Inhibition of Mycobacterium tuberculosis PKNB assessed as percent of control at 2000 nM by KINOMEscan assay relative to control; set-up: scale not given: the % may be the effect or the level left
Serine/threonine-protein kinase PknB (Mycobacterium tuberculosis), sequence (P9WI81 whole entry): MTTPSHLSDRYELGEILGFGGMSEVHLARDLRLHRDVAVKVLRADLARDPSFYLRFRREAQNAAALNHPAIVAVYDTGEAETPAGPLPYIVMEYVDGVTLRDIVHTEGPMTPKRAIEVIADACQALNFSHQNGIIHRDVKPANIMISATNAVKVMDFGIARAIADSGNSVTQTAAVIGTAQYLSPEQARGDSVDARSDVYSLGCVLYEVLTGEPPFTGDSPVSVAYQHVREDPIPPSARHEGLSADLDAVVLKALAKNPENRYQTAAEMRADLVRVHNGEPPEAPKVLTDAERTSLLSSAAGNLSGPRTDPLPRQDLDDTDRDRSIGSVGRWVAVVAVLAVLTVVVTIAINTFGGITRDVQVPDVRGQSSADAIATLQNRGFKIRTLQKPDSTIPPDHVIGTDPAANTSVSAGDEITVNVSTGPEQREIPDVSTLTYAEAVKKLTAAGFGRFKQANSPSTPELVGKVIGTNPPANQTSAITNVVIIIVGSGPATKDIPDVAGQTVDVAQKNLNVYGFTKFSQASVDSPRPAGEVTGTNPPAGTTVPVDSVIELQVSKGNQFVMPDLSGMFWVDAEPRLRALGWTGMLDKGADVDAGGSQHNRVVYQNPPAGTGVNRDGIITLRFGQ

[28] = biological target: Mitogen-activated protein kinase 13 (Homo sapiens) (UniProt O15264); assay: Inhibition of human p38-delta assessed as percent of control at 2000 nM by KINOMEscan assay relative to control; set-up: scale not given: the % may be the effect or the level left
Mitogen-activated protein kinase 13 (Homo sapiens), sequence (O15264 whole entry): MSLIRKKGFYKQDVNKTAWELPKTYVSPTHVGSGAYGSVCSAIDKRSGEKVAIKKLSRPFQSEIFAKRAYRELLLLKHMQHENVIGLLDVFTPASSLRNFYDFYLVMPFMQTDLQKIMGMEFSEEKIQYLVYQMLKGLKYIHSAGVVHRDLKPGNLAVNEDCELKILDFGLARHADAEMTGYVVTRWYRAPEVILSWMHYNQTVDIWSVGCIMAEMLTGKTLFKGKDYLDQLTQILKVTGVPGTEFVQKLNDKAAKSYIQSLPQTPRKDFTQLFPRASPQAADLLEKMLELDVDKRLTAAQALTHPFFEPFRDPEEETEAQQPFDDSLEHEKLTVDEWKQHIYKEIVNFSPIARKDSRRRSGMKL

[29] = biological target: Serine/threonine-protein kinase TAO3 (Homo sapiens) (UniProt Q9H2K8); assay: Inhibition of human TAOK3 assessed as percent of control at 2000 nM by KINOMEscan assay relative to control; set-up: scale not given: the % may be the effect or the level left
[30] = biological target: Serine/threonine-protein kinase 36 (Homo sapiens) (UniProt Q9NRP7); assay: Inhibition of human STK36 assessed as percent of control at 2000 nM by KINOMEscan assay relative to control; set-up: scale not given: the % may be the effect or the level left
[31] = tested on: Tyrosine-protein kinase ABL1 (Homo sapiens), P00519 [E255K]; assay: Inhibition of phosphorylated human ABL1 E255K mutant assessed as percent of control at 2000 nM by KINOMEscan assay relative to control; set-up: scale not given: the % may be the effect or the level left
[32] = biological target: Protein kinase C delta type (Homo sapiens) (UniProt Q05655); assay: Inhibition of human PRKCD assessed as percent of control at 2000 nM by KINOMEscan assay relative to control; set-up: scale not given: the % may be the effect or the level left

`CN(C)C(=O)c1ccc(N2CCCN(c3ccnc4sc(C(N)=O)c(N)c34)CC2)cc1` was tested, and the Activity [1] was 82% and 99%, the Activity [2] was 91% and 95% and the Activity [3] was 98% and 91%. For the same molecule, the Activity [4] was 87% and 100%, the Activity [5] was 100% and 97% and the Activity [6] was 97% and 99%. The Activity (Myc-CaP [7]) was “Active”, the Activity (Myc-CaP [8]) was “Active” and the Activity [9] was 100%. The Activity (Myc-CaP [10]) was “Active”, the Activity [11] was 86% and 71% and the Activity [12] was 92% and 100%. The Activity [13] was 95% and 87%, the Activity [14] was 84% and 90% and the Activity [15] was 95% and 92%. The Activity [16] was 95% and 100%, the Activity [17] was 100% and 81% and the Activity [18] was 57% and 77%. For the same molecule, the Activity [19] was 100% and 85%, the Activity [20] was 70% and 65% and the Activity [21] was 94% and 100%. The Activity [22] was 95%, the Activity [23] was 74% and 71% and the Activity [24] was 98% and 87%. The Activity [25] was 85% and 100%, the Activity [26] was 100% and 97% and the Activity [27] was 100% and 90%. The Activity [28] was 96% and 97%, the Activity [29] was 98% and 73% and the Activity [30] was 100%. For the same molecule, the Activity [31] was 100% and 82% and the Activity [32] was 100% and 92%.
